Source: ChEMBL document CHEMBL1158196, “Isolation and synthesis of novel farnesyl protein transferase inhibitors, valinoctins A and B, from Streptomyces strain MJ858-NF3” (J Nat Prod, 1996)
≈ marks a conversion by molar mass, not a printed value.

Test: Inhibition of bovine brain FPTase after 20 mins
Set-up: species or system Bos taurus

IC50 [µg/mL] | Structure (SMILES)
0.9 (≈ 3.28 µM) | CCCCC[C@@H](N)[C@H](O)C(=O)N[C@H](C(=O)O)C(C)C [VALINOCTIN A]
1 (≈ 3.47 µM) | CCC(C)CC[C@@H](N)[C@H](O)C(=O)N[C@H](C(=O)O)C(C)C (some centres not stated) [VALINOCTIN B]
